Data: patent US11643385B2, “Polymorphic forms of RAD1901-2HCl” (RADIUS PHARMACEUTICALS, INC., priority 2018, dated 2023)
Entries after “also recorded” stand apart in the source; their conditions may differ. Marks after values point to notes of the source that are not given here.

Key:
[1] = Solubility assessment and polymorph screen on Sample 1 (Form 1) of RAD1901-2HCl in 24 solvent systems; assay type: physicochemical; details: for Solubility observation at 10 vol.: 25 mg Sample 1, 10 vol. solvent (solvent per sample ID), stirred 25° C., shaken 50° C.; for Solubility observation at 20 vol.: 20 vol. solvent (solvent per sample ID); for Solubility observation at 40 vol.: 40 vol. solvent (solvent per sample ID); for Solubility observation at 60 vol.: 60 vol. solvent (solvent per sample ID); for XRPD of recovered solid (form): solid recovered after maturation, cooling or evaporation; for Observation after Cooled to 5° C.: clear solutions cooled 50° C. to 5° C. at 0.1° C./min; for Observation after Evaporation: slow evaporation at ambient conditions
Description: Solubility assessment was carried out on the Sample 1 of RAD1901-2HCl (majorly Form 1 shown by XRPD) in 24 solvent systems in HPLC vials (sample IDs: A1 to A24). RAD1901-2HCl (25 mg) was treated with increasing volumes of solvent until the material fully dissolved or until a maximum of 60 vol had been used (Table 13).
After each addition of solvent, the system was stirred for 5 to 10 minutes at 25° C., then shaken at 50° C. for 5 to 10 minutes, and observations made. Samples were allowed to stand at room temperature for 5 min before the addition of a new aliquot of solvent. After the assessment was completed, the suspensions obtained were matured (maturation) and the clear solutions were cooled (cooling) and slowly evaporated (evaporation) as described below. All solids recovered from maturation, cooling and evaporation experiments were analyzed by high resolution XRPD.
The suspensions obtained during the solubility assessment were matured by shaken in a maturation chamber between 50° C. and RT (8 hr per cycle) for up to 5 days. Then the mixture was allowed to stand at room temperature for 10 minutes. The resulting solids were filtered and air dried and analyzed by XRPD. The clear solutions obtained during maturation were evaporated in ambient conditions and the resulting residues were analyzed by XRPD.
The clear solutions obtained during the course of the solubility assessment were cooled on a Polar Bear device from 50° C. to 5° C. at 0.1° C./min. Solids obtained upon cooling were recovered from the vials, air dried and analyzed by XRPD. If no solid was obtained, the solutions were evaporated slowly through a needle inserted into the septum cap of the vial until a solid appeared at ambient conditions and the resulting solids were filtered, air dried and analyzed by XRPD.

[2] = Solubility assessment and polymorph screen on amorphous RAD1901-2HCl; assay type: physicochemical; details: for XRPD post 50° C./RT (form): after maturation at 50° C./RT; for Solubility observation at 10 vol.: amorphous RAD1901-2HCl, 10 vol. solvent (solvent per sample ID)
Description: In a scale-up preparation of amorphous RAD1901-2HCl, RAD1901-2HCl (600 mg) was dissolved in water (20 vol., 12 mL) and filtered to remove any remaining solid particles. The solution was then aliquoted into 24 HPLC vials, frozen in a dry ice/acetone bath and the solvent removed by lyophilisation. Solids produced by lyophilization were used directly in solubility assessment and polymorph screens in Example 4.
Amorphous RAD1901-2HCl prepared as described in Example 3B was used directly in solubility assessment and polymorph screens (Table 15). XRPD patterns were further obtained for amorphous RAD1901-2HCl prepared using other solvents.
In the polymorph screen of the amorphous RAD1901-2HCl prepared as described in Example 3B, an aliquot of each sample was examined for its morphology under the microscope, both after maturing at 25° C., and after maturing at 50° C./RT. […] In some instances, the sample appeared to be a mixture of various polymorphic forms, e.g. Form 2 and Form 3 (FIGS. 18B-18C), similar to the mixture of Forms 2 and 3 in Sample 2 having an equilibrium between the two solid forms, depending on the prevailing RH.

| Compound | Solubility observation at 10 vol. [1] | Solubility observation at 20 vol. [1] | Solubility observation at 40 vol. [1] | Solubility observation at 60 vol. [1] | XRPD of recovered solid (form) [1] | Observation after Cooled to 5° C. [1] | Observation after Evaporation [1] | Observation After 50/RT maturation ([1]; 50° C./RT cycles (8 hr per cycle) up to 5 days) | XRPD post 50° C./RT (form) [2] | Solubility observation at 10 vol. [2] |
| --- | --- | --- | --- | --- | --- | --- | --- | --- | --- | --- |
| CCNCCc1ccc(CN(CC)c2cc(OC)ccc2[C@@H]2CCc3cc(O)ccc3C2)cc1.Cl.Cl [Form A1] | X (X = suspension) | X (X = suspension) | X (X = suspension) | X (X = suspension) | Form 1 | – | – | – | – | – |
| CCNCCc1ccc(CN(CC)c2cc(OC)ccc2[C@@H]2CCc3cc(O)ccc3C2)cc1.Cl.Cl [Form A2] | X (X = suspension) | X (X = suspension) | X (X = suspension) | X (X = suspension) | Form 1 | – | – | – | – | – |
| CCNCCc1ccc(CN(CC)c2cc(OC)ccc2[C@@H]2CCc3cc(O)ccc3C2)cc1.Cl.Cl [Form A3] | X (X = suspension) | X (X = suspension) | X (X = suspension) | X (X = suspension) | Form 1 | – | – | – | – | – |
| CCNCCc1ccc(CN(CC)c2cc(OC)ccc2[C@@H]2CCc3cc(O)ccc3C2)cc1.Cl.Cl [Form A4] | X (X = suspension) | X (X = suspension) | X (X = suspension) | X (X = suspension) | Form 1 | – | – | – | – | – |
| CCNCCc1ccc(CN(CC)c2cc(OC)ccc2[C@@H]2CCc3cc(O)ccc3C2)cc1.Cl.Cl [Form A5] | X (X = suspension) | X (X = suspension) | X (X = suspension) | X (X = suspension) | Form 1 | – | – | – | – | – |
| CCNCCc1ccc(CN(CC)c2cc(OC)ccc2[C@@H]2CCc3cc(O)ccc3C2)cc1.Cl.Cl [Form A6] | X (X = suspension) | X (X = suspension) | X (X = suspension) | X (X = suspension) | Form 3* | – | – | – | – | – |
| CCNCCc1ccc(CN(CC)c2cc(OC)ccc2[C@@H]2CCc3cc(O)ccc3C2)cc1.Cl.Cl [Form A7] | X (X = suspension) | X (X = suspension) | X (X = suspension) | X (X = suspension) | Form 1* | – | – | – | – | – |
| CCNCCc1ccc(CN(CC)c2cc(OC)ccc2[C@@H]2CCc3cc(O)ccc3C2)cc1.Cl.Cl [Form A8] | X (X = suspension) | X (X = suspension) | X (X = suspension) | X (X = suspension) | Form 1 | – | – | – | – | – |
| CCNCCc1ccc(CN(CC)c2cc(OC)ccc2[C@@H]2CCc3cc(O)ccc3C2)cc1.Cl.Cl [Form A10] | X (X = suspension) | X (X = suspension) | X (X = suspension) | X (X = suspension) | Form 1 | – | – | – | – | – |
| CCNCCc1ccc(CN(CC)c2cc(OC)ccc2[C@@H]2CCc3cc(O)ccc3C2)cc1.Cl.Cl [Form A11] | S (S = solution) | – | – | – | – | S | S | – | – | – |
| CCNCCc1ccc(CN(CC)c2cc(OC)ccc2[C@@H]2CCc3cc(O)ccc3C2)cc1.Cl.Cl [Form A12] | +/− (+/− = nearly dissolved) | S (S = solution) | – | – | Form 3 | S | Solid | – | – | – |
| CCNCCc1ccc(CN(CC)c2cc(OC)ccc2[C@@H]2CCc3cc(O)ccc3C2)cc1.Cl.Cl [Form A13] | X (X = suspension) | X (X = suspension) | X (X = suspension) | X (X = suspension) | Form 1 | – | – | – | – | – |
| CCNCCc1ccc(CN(CC)c2cc(OC)ccc2[C@@H]2CCc3cc(O)ccc3C2)cc1.Cl.Cl [Form A14] | X (X = suspension) | X (X = suspension) | X (X = suspension) | X (X = suspension) | Form 1 | – | – | – | – | – |
| CCNCCc1ccc(CN(CC)c2cc(OC)ccc2[C@@H]2CCc3cc(O)ccc3C2)cc1.Cl.Cl [Form A15] | X (X = suspension) | X (X = suspension) | X (X = suspension) | X (X = suspension) | Form 1 | – | – | – | – | – |
| CCNCCc1ccc(CN(CC)c2cc(OC)ccc2[C@@H]2CCc3cc(O)ccc3C2)cc1.Cl.Cl [Form A17] | X (X = suspension) | X (X = suspension) | X (X = suspension) | X (X = suspension) | Form 1 | – | – | – | – | – |
| CCNCCc1ccc(CN(CC)c2cc(OC)ccc2[C@@H]2CCc3cc(O)ccc3C2)cc1.Cl.Cl [Form A19] | X (X = suspension) | X (X = suspension) | X (X = suspension) | X (X = suspension) | Form 1 | – | – | – | – | – |
| CCNCCc1ccc(CN(CC)c2cc(OC)ccc2[C@@H]2CCc3cc(O)ccc3C2)cc1.Cl.Cl [Form A20] | +/− (+/− = nearly dissolved) | S (S = solution) | – | – | Pattern 3; also recorded: Form 3 | Platelet | – | – | – | – |
| CCNCCc1ccc(CN(CC)c2cc(OC)ccc2[C@@H]2CCc3cc(O)ccc3C2)cc1.Cl.Cl [Form A21] | – | – | – | – | – | – | – | S | – | – |
| CCNCCc1ccc(CN(CC)c2cc(OC)ccc2[C@@H]2CCc3cc(O)ccc3C2)cc1.Cl.Cl [Form A22] | +/− (+/− = nearly dissolved) | S (S = solution) | – | – | Form 3* | Some | – | – | – | – |
| CCNCCc1ccc(CN(CC)c2cc(OC)ccc2[C@@H]2CCc3cc(O)ccc3C2)cc1.Cl.Cl [Form A23] | X (X = suspension) | X (X = suspension) | +/− (+/− = nearly dissolved) | S (S = solution) | Form 3 | S | Solids, | – | – | – |
| CCNCCc1ccc(CN(CC)c2cc(OC)ccc2[C@@H]2CCc3cc(O)ccc3C2)cc1.Cl.Cl [Form A24] | X (X = suspension) | X (X = suspension) | +/− (+/− = nearly dissolved) | S (S = solution) | Form 3 | S | Solids | – | – | – |
| CCNCCc1ccc(CN(CC)c2cc(OC)ccc2[C@@H]2CCc3cc(O)ccc3C2)cc1.Cl.Cl [Form B1.] | – | – | – | – | – | – | – | – | Amorphous | X (X = suspension) |
| CCNCCc1ccc(CN(CC)c2cc(OC)ccc2[C@@H]2CCc3cc(O)ccc3C2)cc1.Cl.Cl [Form B2.] | – | – | – | – | – | – | – | – | Form 2/3 | – |
| CCNCCc1ccc(CN(CC)c2cc(OC)ccc2[C@@H]2CCc3cc(O)ccc3C2)cc1.Cl.Cl [Form B3.] | – | – | – | – | – | – | – | – | Form 2/3 | X (X = suspension) |
| CCNCCc1ccc(CN(CC)c2cc(OC)ccc2[C@@H]2CCc3cc(O)ccc3C2)cc1.Cl.Cl [Form B4.] | – | – | – | – | – | – | – | – | Form 2/3 | X (X = suspension) |
